Measurements published in paper PMC11181322, “Copper(II) Complexes with Isomeric Morpholine-Substituted 2-Formylpyridine Thiosemicarbazone Hybrids as Potential Anticancer Drugs Inhibiting Both Ribonucleotide Reductase and Tubulin Polymerization: The Morpholine Position Matters” (Journal of Medicinal Chemistry, 2024).
Like-named read-outs stand apart in the source and are kept apart here. One block for each compound: values may come before it.

Experiments:
[1] = calculated at pH 7.4, aqueous solution ref 69, 52; cited from earlier work
[2] = test system: MES-SA cells; assay: Fluorescent protein-based cytotoxicity assay, MES-SA; type: cell-based, human; details: 120 h, ± SD, n = 3
From the text: (§1) The cytotoxic activity of proligands H2L^3–H2L^6 and their copper(II) complexes 3–6 was investigated in the MES-SA (human uterine sarcoma) and in its MDR counterpart (MES-SA/Dx5) cell lines by a fluorescent protein-based assay.[73]
(§2) The human uterine sarcoma cell lines MES-SA and the doxorubicin selected MES-SA-Dx5 were obtained from ATCC (MES-SA: No. CRL-1976, MES-SA/Dx5: No. CRL-1977) and were used for the intracellular ROS generation studies. For cytotoxicity, we used the fluorescent cell lines MES-SA mCherry and MES-SA/Dx5 eGFP, which were created by lentiviral transductions of the respective genes.[73] The phenotype of the resistant cells was maintained by 500 nM doxorubicin treatment a week before use and was verified using cytotoxicity assays. Cells were cultivated at 37 °C, 5% CO2 in Dulbecco’s modified Eagle's Medium (DMEM, Sigma-Aldrich), supplemented with 10% fetal bovine serum, 5 mM glutamine, and 50 unit/mL penicillin and streptomycin (Thermo Fisher).
(§3) MES-SA mCherry and MES-SA/Dx5 eGFP cell suspensions were seeded after trypsinization at 2500 cells/20 μL density on 384-well plates, containing 20 μL of completed medium. The next day, serial dilution of the compounds was prepared and added in an additional 20 μL, with or without 0.4 μM Tariquidar. Liquid handling steps were performed by a Hamilton StarLet robot. […] The mean and standard deviation of the pIC50 values were calculated and converted to IC50 values.

[3] = Conditional stability constants of the copper(II) complexes by EDTA displacement (UV–vis); type: physicochemical
Method: The stability constants of 3–6 were determined by EDTA competition experiments monitored by UV–vis spectrophotometry at pH 5.9, where the [Cu(HL)]^+ species is dominant. Since the displacement of the TSC ligand by EDTA is relatively slow, a 2 h reaction time was used to reach equilibrium. Upon increasing the concentration of EDTA, the absorbance of the characteristic S → Cu charge transfer band at 400–416 nm decreased (see, for example, Figure 3 for the copper(II)–H2L^4 (1:1) system).[68] The experiments were performed in both aqueous solution and the 30% (v/v) DMSO/H2O solvent mixture. The determined conditional (apparent) formation constants (log K′5.9) are rather similar (see Table 2) in both media. However, the values are lower in the DMSO/H2O solvent mixture than in aqueous solution, presumably due to coordination of DMSO to copper(II). An analogous observation was reported for the copper(II) complex of Triapine.[67] […] To compare the copper(II) binding ability of the studied TSCs H2L^3–H2L^6 at pH 5.9 (at which the conditional constants were determined), pCu (−log [Cu(II)]) values were also computed using the experimentally determined equilibrium constants (Table 2). The higher pCu value indicates a stronger metal ion binding ability of the ligand under given circumstances. The ligands form complexes with fairly similar stability, in agreement with the conditional stability constants. […] A similar behavior was reported for aqueous solutions of the N-terminally dimethylated derivative of the 2-pyridinecarboxaldehyde TSC (PTSC)[69] and for the corresponding morpholine-hybrid Morph-dm-FTSC.[52] In particular, the calculated pCu values were also very close, 13.17 for PTSC vs 13.08 for Morph-dm-FTSC calculated at pH 7.4.
(§4) The path length was 1 cm.

[4] = Cyclic voltammetry of copper(II) complexes in DMSO/n-Bu4NPF6; type: physicochemical
Method: The redox properties of the copper(II) complexes 3–6 were investigated by electrochemical, EPR, and UV–vis spectroelectrochemical measurements. […] While the half-wave reduction potentials E1/2^red for complexes 3–5 were almost the same (−0.82 V vs Fc^+/Fc), the E1/2^red for 6 is by 0.07 V more positive (−0.75 V vs Fc^+/Fc), as summarized in Table 4. The corresponding proligands are not redox active in the cathodic part (not shown).
Cyclic voltammetric experiments with 0.5 mM solutions of copper(II) complexes 3–6 in 0.1 M nBu4NPF6 (puriss quality from Fluka; dried under reduced pressure at 70 °C for 24 h before use) as supporting electrolyte in DMSO (SeccoSolv max. 0.025% H2O, Merck) were performed under Ar using a three-electrode arrangement with Pt wire as the counter electrode and Ag wire as the pseudoreference electrode. Glassy carbon or Pt wire served as the working electrode. Ferrocene purchased from Sigma-Aldrich was used as the internal potential standard without further purification. All potentials in voltammetric studies were quoted vs ferricenium/ferrocene (Fc^+/Fc) as the redox couple. A Heka PG310USB (Lambrecht, Germany) potentiostat with a PotMaster 2.73 software package served for the potential control in voltammetric studies. In situ ultraviolet–visible-near-infrared (UV–vis–NIR) spectroelectrochemical measurements were performed on a spectrometer (Avantes, Model AvaSpec-2048 × 14-USB2 in the spectroelectrochemical cell kit ([…]3) with the Pt-microstructured honeycomb working electrode, purchased from Pine Research Instrumentation. The cell was positioned in the CUV-UV Cuvette Holder (Ocean Optics) connected to the diode array UV–vis-NIR spectrometer by optical fibers. UV–vis-NIR spectra were processed using the AvaSoft 7.7 software package. Halogen and deuterium lamps were used as light sources (Avantes, Model AvaLight-DH-S-BAL).

[5] = test system: MES-SA/Dx5 cells; assay: Fluorescent protein-based cytotoxicity assay, MES-SA/Dx5; type: cell-based, human; details: for IC50: 120 h, ± SD, n = 3; for SR, selectivity ratio IC50 (MES-SA)/IC50 (MES-SA/Dx5): in the absence of TQ
From the text: as §1, §2, §3

[6] = Redox reaction of the copper(II) complexes with GSH (UV–vis, anoxic); type: physicochemical; details: pH 7.4 (50 mM HEPES); ccomplex = 25 μM; cGSH = 1.25 mM; pure water; 25 °C
From the text: The direct reduction of the copper(II) complexes with the antioxidant GSH was investigated in anoxic aqueous solution at pH 7.4 by UV–vis spectrophotometry. At this pH, the complex [Cu(HL)]^+ is assumed to predominate according to the speciation studies (vide supra). The spectral changes were monitored in the wavelength range 250–550 nm by using a large excess of GSH (50 equiv). In this wavelength range, the spectral changes are due to the absorption of the metal complex and the ligand.
These changes imply that, after reduction in the presence of excess GSH, the generated copper(I) complex is not stable and liberates the free TSC ligand. […] The time-dependent absorbance changes are shown for all the studied systems in Figure 4b. The observed rate constants (kobs) were calculated (Table 2) as a semiquantitative description of the reaction kinetics. […] The obtained kobs values fall into the range for Triapine (0.10 min^–1), 2-pyridinecarboxaldehyde TSC (0.041 min^–1), and N-monomethylated N-methyl-Triapine (0.077 min^–1), measured under similar conditions.[67] To find out whether this slightly different kinetics for 6 and 3–5 is in accordance with their reduction potentials, cyclic voltammetry was performed.
The redox reaction of the copper(II) complexes with GSH and ascorbic acid was studied at 25.0 ± 0.1 °C on a Hewlett-Packard 8452A diode array spectrophotometer using a special, tightly closed tandem cuvette (Hellma Tandem Cell, 238-QS). The reactants were separated until the reaction was triggered. Both isolated pockets of the cuvette were completely deoxygenated by bubbling a stream of Ar for 10 min before mixing the reactants. Spectra were recorded before and then immediately after the mixing, and changes were followed until no further absorbance change was observed. One of the isolated pockets contained the reducing agent, and the other contained the complex. Their final concentrations were 1250 and 25 μM, respectively. The pH of all the solutions was adjusted to 7.40 by 50 mM HEPES buffer. The ionic strength of the solution was 0.1 M (KCl). The stock solutions of the reducing agents and the complexes were freshly prepared every day. During the calculations, the absorbance (A) – time (t) curves were fitted and analyzed at the λmax of the complex. (A0 – Afinal) × e^(−a×t) + Afinal was the fitting equation used, where the A0, Afinal, and a parameters were refined and accepted at the minimal value of the weighted sum of squared residuals (difference between the measured and calculated absorbance values) at the given wavelength. Then, observed rate constants (kobs) of the redox reaction were obtained from the data points of the simulated absorbance–time curves as the slope of the ln(A/A0) vs time plots.

[7] = test system: purified tubulin; assay: Inhibition of polymerization of purified tubulin; type: biochemical; details: read-out: inhibition of tubulin IC50 ± SD
[8] = test system: tubulin; assay: Inhibition of [3H]colchicine binding to tubulin; details: for inhibition of colchicine binding % inhibition ± SD: tubulin 0.5 μM, colchicine 5 μM
[9] = target: T1, mR2 RNR protein (Mus musculus, UniProt P11157); assay: Tyrosyl radical reduction in mR2 RNR protein (EPR); type: biochemical; details: 20 μM mR2, 1:1 protein-to-drug
T1 construct: made in house
T1 sequence (P11157 1-390): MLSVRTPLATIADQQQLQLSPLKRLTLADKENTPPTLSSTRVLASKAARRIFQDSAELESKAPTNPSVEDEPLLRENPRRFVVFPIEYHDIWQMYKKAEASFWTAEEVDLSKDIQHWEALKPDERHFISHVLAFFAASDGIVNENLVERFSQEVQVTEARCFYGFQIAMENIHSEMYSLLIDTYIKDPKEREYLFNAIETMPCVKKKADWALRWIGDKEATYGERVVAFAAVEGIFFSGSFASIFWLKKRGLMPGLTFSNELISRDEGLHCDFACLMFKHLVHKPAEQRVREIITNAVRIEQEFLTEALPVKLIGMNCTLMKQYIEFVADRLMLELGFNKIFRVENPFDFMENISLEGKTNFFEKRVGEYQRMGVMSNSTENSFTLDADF
Method: Since α-N-heterocyclic TSCs are very potent R2 RNR inhibitors, the time-dependent Y^• reduction of the mR2 RNR protein was measured. The effect of equimolar concentrations of the proligands H2L^3–H2L^6 and their copper(II) complexes 3–6, in the absence and presence of an external reductant DTT, is shown in Figure 7.
Figure 7 Tyrosyl radical reduction kinetics of mR2 RNR (20 μM) in the absence (triangles) and in the presence (circles) of an external reductant (2 mM DTT) at the 1:1 protein-to-drug ratio, measured by EPR spectroscopy at 30 K, for (a) H2L^3 (black), H2L^4 (red), H2L^5 (blue), and H2L^6 (green) and for (b) 3 (black), 4 (red), 5 (blue), and 6 (green).
Samples containing 20 μM mR2 in 50 mM HEPES buffer, pH 7.5/100 mM NaCl, 20 μM compound in 1% (v/v) DMSO/H2O, in the absence or presence of 2 mM DTT, were incubated for indicated times and quickly frozen in cold isopentane. The same samples were used for repeated incubations at room temperature. The experiments were performed in duplicate.

[10] = Proton dissociation constants (pKa) of the proligands by pH-potentiometry, UV–vis and 1H NMR titrations; type: physicochemical; details: 30% (v/v) DMSO/H2O solvent mixture, I = 0.1 M (KCl), t = 25 °C
Method: as §4
^1H NMR spectroscopic studies were carried out on a Bruker Avance III HD instrument. All spectra were recorded with the WATERGATE water suppression pulse scheme using sodium trimethylsilylpropanesulfonate as internal standard.

[11] = parameters: method as in PMID 32336116; details: copper(II) complexes of the named TSCs, measured under similar conditions ref 67; cited from earlier work

Compound: CN(C)C(=S)NN=Cc1ccccn1 [PTSC]
- pCu [1]: 13.17

- logK′5.9 (DMSO/H2O) ([3]; EDTA displacement, UV–vis, pH 5.9, 30% (v/v) DMSO/H2O, 25 °C): 10.33 ± 0.01
- logK′5.9 (H2O) ([3]; EDTA displacement, UV–vis, pH 5.9, water, I = 0.1 M (KCl), 25 °C): 13.82 ± 0.04
- pCu5.9 (=–log[Cu(II)]) ([3]; calcd. at pH 5.9, cL = cCu(II) = 1 μM): 8.20
- Epa^1 ([4]; first anodic peak potential vs Fc+/Fc, 100 mV s^–1): +0.27 V
- Epa^2 ([4]; second anodic peak potential vs Fc+/Fc, 100 mV s^–1): +0.79 V
- E1/2^red ([4]; vs Fc+/Fc, scan rate 100 mV s^–1): –0.83 V
- IC50 [7]: 7 ± 0.3 µM
- inhibition of colchicine binding % inhibition ± SD ([8]; 5 μM inhibitor): 22 ± 2%
- inhibition of colchicine binding % inhibition ± SD ([8]; 25 μM inhibitor): 40 ± 3%
- fold less potent than CA-4 in inhibiting [3H]colchicine binding ([8]; at the 5 μM concentration): 4.5 fold
Compound: Cc1cc(NC(=NN=Cc2ncccc2CN2CCOCC2)[S][Cu][Cl])cc(C)c1O [complex 3, [Cu(HL^3)Cl]·H2O]
- IC50 [2]: 15 ± 3 µM
- IC50 [5]: 5.5 ± 0.6 µM
- SR, selectivity ratio IC50 (MES-SA)/IC50 (MES-SA/Dx5) [5]: 2.76
- kobs, redox reaction with GSH [6]: 0.059 ± 0.004 min^–1

- Y• reduced in mR2 protein ([9]; after 15 min, in the presence of 2 mM DTT): ~70%
- Y• reduced in mR2 protein ([9]; without DTT): ca. 20%
- pKa ([10]; UV–vis spectrophotometry, read-out: pKa1): 1.53 ± 0.01
- pKa ([10]; pH–potentiometry, read-out: pKa1): < 2
- pKa ([10]; pH–potentiometry, read-out: pKa2): 5.62 ± 0.06
- pKa ([10]; pH–potentiometry, read-out: pKa3): > 10.5
Compound: Cc1cc(NC(=S)N/N=C/c2ncccc2CN2CCOCC2)cc(C)c1O [H2L^3]
- IC50 ([2]; Homo sapiens, MES-SA): 2.9 ± 0.4 µM
- IC50 ([5]; Homo sapiens, MES-SA/Dx5): 13.1 ± 3.2 µM
- SR, selectivity ratio IC50 (MES-SA)/IC50 (MES-SA/Dx5) [5]: 0.22

Compound: NC(=S)N/N=C/c1ccccn1 [2-pyridinecarboxaldehyde TSC]
- kobs, reduction by GSH [11]: 0.041 min^–1

Compound: COc1cccc2c1C(=O)c1c(O)c3c(c(O)c1C2=O)C[C@@](O)(C(=O)CO)C[C@@H]3O[C@H]1C[C@H](N)[C@H](O)[C@H](C)O1 [Doxorubicin, reference compound]
- IC50 ([2]; Homo sapiens, MES-SA): 0.04 ± 0.01 µM
- IC50 ([5]; Homo sapiens, MES-SA/Dx5): 1.9 ± 0.6 µM
- SR, selectivity ratio IC50 (MES-SA)/IC50 (MES-SA/Dx5) [5]: 0.02

Compound: COc1ccc(/C=C\c2cc(OC)c(OC)c(OC)c2)cc1O [C-A4, Combretastatin A-4, reference compound]
- inhibition of colchicine binding % inhibition ± SD ([8]; 0.5 μM inhibitor): 85 ± 2%
